The test system of assay [1] is Staphylococcus aureus MSSA476. Put plainly: Microtitre plate growth inhibition in TSB, 48 hours, turbidity. It is filed as cell-based. How it is done: (§1) Staphylococcus aureus strains MSSA476 (left) and MRSA252 (right) were cultivated in TSB (Tryptone Soya Broth; Oxoid Basingstoke, UK) to mid-exponential phase. Cultures were then diluted in fresh medium to a starting optical density of 600 nm of 0.001 (approximately 1.0×10^6 cells/ml). Growth of 100 μl volume cultures was measured in 96-well culture plates using TSB as control for 37° C. for 48 hours without shaking in the presence of 0 μg ranalexin/ml medium to 50 μg/ml, increasing stepwise by 5 μg/ml. 8 samples were cultivated for each concentration of ranalexin and to each such sample a different concentration of lysostaphin was added from 0 μg/ml to 1.05 μg/ml in steps of 0.15 μg/ml. The antibacterial activity was measured by reduced turbidity measured by optical density by scanning on an Image Scanner (GE Healthcare UK Ltd) using Image Master Labscan v.3 software. The concentration of ranalexin is indicated above the respective column, each well of a column having the same ranalexin concentration. The wells of each row contain lysostaphin at a final concentration of 0 μg lysostaphin per ml medium to 1.05 μg/ml (as indicated on left), increasing stepwise by 0.15 μg/ml. For S. aureus MSSA476 cultivated in the absence of lysostaphin, ranalexin provides an inhibitory effect at concentrations above 30 μg/ml medium (typically 35 to 40 μg/ml). […] The combination of ranalexin and lysostaphin reduces the necessary amount of each of the compounds by providing a synergistic antimicrobial effect.
(§2) Staphylococcus aureus strains MSSA476 (left) and MRSA252 (right) were cultivated in TSB medium as described in Example 1, except for the narrower concentration ranges of ranalexin and lysostaphin. Ranalexin is provided at concentrations of 0 μg/ml, 0.5 μg/ml and 1 μg/ml to 10 μg/ml, increasing stepwise by 1 μg/ml medium, and lysostaphin concentrations of 0 μg/ml to 0.2 μg/ml, with intermediate concentrations of 0.01 μg/ml, 0.025 μg/ml, 0.05 μg/ml, 0.075 μg/ml, 0.1 μg/ml and 0.15 μg/ml as indicated in FIG. 2.

In assay [2] the test system is Staphylococcus aureus MRSA252. Described as above. The settings on record: for concentration needed for inhibition, compound alone: MRSA252, 48 hours, in the absence of the other compound. It counts as cell-based. How it is done:
as §1, §2

Another assay has as its system MRSA252. Kind of assay: Bactericidal assay, survivors after 30 minute exposure in TSB broth. It is filed as cell-based, Staphylococcus aureus. The method, then:
MRSA252 in TSB broth was exposed for 30 mins to either: increasing concentrations (0, 1, 2, 4, 6, 8 and 10 μg/ml) of ranalexin alone (filled squares); increasing concentrations (0.0, 0.01, 0.02, 0.04, 0.06, 0.08, 0.1 μg/ml) of lysostaphin alone (filled circles); or a combination of 8 μg/ml ranalexin with increasing concentrations (0.0, 0.01, 0.02, 0.04, 0.06, 0.08, 0.1 μg/ml) of lysostaphin. Total cell numbers, or survivors, after a 30 minute exposure to each of the above conditions were determined by serial dilution and plating on TSB agar. Survivors were determined after 24 hours incubation of the TSB plates at 37° C. and expressed as the log of colony forming units per ml of broth. The arrows on FIG. 7 indicate that the numbers of survivors were less than the minimum detectable by this method.

Assay [3] relates to Staphylococcus aureus MRSA252 and Staphylococcus aureus MSSA476. Put plainly: Impregnated dried paper disks on TSA plates, zones of inhibition. It is filed as cell-based. Conditions: none at lower amounts. How it is done: Sterile Whatman paper disks were impregnated with ranalexin (0.5, 1, 2, 5, 10 or 20 μg), with lysostaphin (0.1, 0.2, 0.5, 1, 2 or 5 μg), a combination of 1 μg lysostaphin and ranalexin (0.5, 1, 2, 5, 10 or 20 μg), or a combination of 10 μg ranalexin and lysostaphin ([…], 0.5, 1, 2 or 5 μg). The paper disks were allowed to dry overnight and then stored at −20° C. until required.
Cultures of Staphylococcus aureus MRSA252 and Staphylococcus aureus MSSA476 were grown to mid-log phase (OD600 0.6-0.9) and diluted to 0.6 if necessary. 150 μl of the culture was then spread onto TSA (Tryptone Soya Agar; Oxoid, Basingstoke, UK) plates and allowed to dry. An impregnated paper disk prepared as described above was placed centrally on the agar plates. Plates were incubated for 20 hours at 37° C. before visual assessment of the zones of inhibition (see FIG. 8) which were visible as clear areas around the disks.

Assay [4] concerns Staphylococcus aureus strains MSSA476 and MRSA252. Put plainly: Microtitre plate growth inhibition with dermaseptin s3(1-16) or magainin 2 and lysostaphin (Examples 3, 4). The settings on record: either strain, up to 50 μg ml^−1. It counts as cell-based.

Positions of bridges follow the written chain, without caps; N, C: chain ends. No end group written: not given here.

With “lysostaphin: 27 kDa zinc-dependent metallopeptidase (glycylglycine endopeptidase) secreted by Staphylococcus simulans and S. staphylolyticus”, the “concentration providing an inhibitory effect, compound alone” value in assay [1] (MSSA476, 48 hours, in the absence of the other compound) is “above 0.75 μg/ml”. Also, the MIC result in assay [1] (MSSA476, lysostaphin alone) is listed as “approximately 0.75 μg/ml”; in assay [2] (MRSA252, lysostaphin alone), “approximately 0.45 μgml”. In addition, the “concentration needed for inhibition, compound alone” value in assay [2] was “above 0.45 μg/ml”. Moreover, the reduction in numbers with MRSA252 (0.06 μg ml^−1 lysostaphin, 30 minutes) was 0.5 log. The “effect on viable cell numbers” value in the assay on MRSA252 (lysostaphin alone, 0.01 to 0.1 μg ml, 30 minutes) is “minor decrease in viable cell numbers”. In assay [3] (disk with 5 μg lysostaphin), the “zone of inhibition, agent alone” value is recorded as “some minimal inhibition”.
As for “ranalexin: 20 amino acid bullfrog peptide FLGGLIKIVPAMICAVTKKC (SEQ ID NO 1) with a single intramolecular disulphide bond (FLGGLIKIVPAMICAVTKKC; disulfide 14-20 (inferred); listed as Rana catesbeiana)”, the “concentration needed for inhibition, compound alone” value in assay [2] is recorded as “above 40 μg/ml”. For the same substance, the effect on viability result with MRSA252 (ranalexin alone up to 10 μg ml^−1, 30 minutes) is on record as “no detectable effect on viability”. For the same substance, in assay [3] (disk with 20 μg ranalexin), the “zone of inhibition, agent alone” value is on record as “some minimal inhibition”.
For Magainin 2, in assay [4], the “inhibitory effect of the peptide alone” value was “little inhibitory effect”.

For the origin of these results see patent US7943128B2, “Anti-microbial compositions comprising a cationic peptide and a glycylglycine endopeptidase” (priority 2006, dated 2011).
